For one assay, the target named is T1, Human Calpain 2/NS1 (Homo sapiens, UniProt P17655).
T1 sequence (P17655 1-700): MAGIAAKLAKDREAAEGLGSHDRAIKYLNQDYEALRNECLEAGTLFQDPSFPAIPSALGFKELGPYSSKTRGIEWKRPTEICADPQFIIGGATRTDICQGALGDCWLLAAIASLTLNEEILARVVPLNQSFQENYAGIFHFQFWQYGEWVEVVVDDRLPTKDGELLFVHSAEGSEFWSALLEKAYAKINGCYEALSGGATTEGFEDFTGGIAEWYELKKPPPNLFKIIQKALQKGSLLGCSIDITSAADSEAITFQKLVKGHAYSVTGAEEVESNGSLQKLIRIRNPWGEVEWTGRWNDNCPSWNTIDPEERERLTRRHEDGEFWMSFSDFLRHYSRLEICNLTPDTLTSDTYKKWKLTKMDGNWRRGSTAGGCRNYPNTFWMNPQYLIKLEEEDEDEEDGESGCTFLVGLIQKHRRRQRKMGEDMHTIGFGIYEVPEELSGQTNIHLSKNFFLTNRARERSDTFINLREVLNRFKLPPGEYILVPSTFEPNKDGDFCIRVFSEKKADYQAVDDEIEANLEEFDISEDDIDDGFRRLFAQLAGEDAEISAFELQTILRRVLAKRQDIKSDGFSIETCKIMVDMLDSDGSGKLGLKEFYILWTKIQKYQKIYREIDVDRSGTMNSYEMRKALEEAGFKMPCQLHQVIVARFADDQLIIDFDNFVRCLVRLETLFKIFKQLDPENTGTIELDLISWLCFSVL
T1 sequence (P04632 1-268 partner): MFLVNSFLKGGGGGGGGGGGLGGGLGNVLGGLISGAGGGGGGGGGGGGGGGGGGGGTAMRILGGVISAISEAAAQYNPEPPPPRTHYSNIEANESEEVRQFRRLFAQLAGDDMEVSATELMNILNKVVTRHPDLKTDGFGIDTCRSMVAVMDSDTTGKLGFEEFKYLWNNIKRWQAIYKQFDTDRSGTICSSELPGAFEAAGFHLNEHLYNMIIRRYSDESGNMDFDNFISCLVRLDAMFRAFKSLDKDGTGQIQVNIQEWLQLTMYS
Kind of assay: Biochemical inhibition of Calpain 2, continuous fluorescence (FRET) assay. To be noted: mean; class symbols; read-out: Human Calpain 2/NS1 IC50 (nM)_MEAN. As to the method: (§1) Biochemical inhibition of Calpains 1, 2, and 9.
(§2) Calpains 1, 2, and 9 activity and inhibition thereof are assessed by means of a continuous fluorescence assay. The SensoLyte 520 Calpain substrate (Anaspec Inc) is optimized for detecting calpain activity. This substrate contains a novel internally quenched 5-FAM/QXLTM 520 FRET pair. Calpains 1, 2 and 9 cleave the FRET substrate into two separate fragments resulting in an increase of 5-FAM fluorescence that is proportional to calpain activity.
(§3) Assays are typically setup in black 384-well plates using automated liquid handling as follows. Calpain assay base buffer typically contains 50 mM Tris, pH 7.5, 100 mM NaCl and 1 mM DTT. Inhibitors are serially diluted in DMSO and used to setup 2× mixtures with calpains in the aforementioned buffer. After incubation at ambient temperature (25 C), the reaction is initiated by adding a 2× mix of the fluorescent peptide substrate and CaCl2 (required for in-situ calpain activation) in the same buffer. Reaction progress curve data are typically collected for 10 min using excitation/emission wavelengths of 490 nm/520 nm on SpectraMax i3x or the FLIPR-Tetra plate readers (Molecular Devices Inc). Reaction rates were calculated from progress curve slopes typically over 1-5 min. Dose response curves (rate vs. log inhibitor concentration) were typically fit to a 4-parameter logistic function to extract IC50 values.
Column B: Human Calpain 2/NS1 IC50 (nM)_MEAN

In a further assay the target is T2, Human Calpain 1/NS1 (Homo sapiens, UniProt P07384).
T2 sequence (P07384 1-714): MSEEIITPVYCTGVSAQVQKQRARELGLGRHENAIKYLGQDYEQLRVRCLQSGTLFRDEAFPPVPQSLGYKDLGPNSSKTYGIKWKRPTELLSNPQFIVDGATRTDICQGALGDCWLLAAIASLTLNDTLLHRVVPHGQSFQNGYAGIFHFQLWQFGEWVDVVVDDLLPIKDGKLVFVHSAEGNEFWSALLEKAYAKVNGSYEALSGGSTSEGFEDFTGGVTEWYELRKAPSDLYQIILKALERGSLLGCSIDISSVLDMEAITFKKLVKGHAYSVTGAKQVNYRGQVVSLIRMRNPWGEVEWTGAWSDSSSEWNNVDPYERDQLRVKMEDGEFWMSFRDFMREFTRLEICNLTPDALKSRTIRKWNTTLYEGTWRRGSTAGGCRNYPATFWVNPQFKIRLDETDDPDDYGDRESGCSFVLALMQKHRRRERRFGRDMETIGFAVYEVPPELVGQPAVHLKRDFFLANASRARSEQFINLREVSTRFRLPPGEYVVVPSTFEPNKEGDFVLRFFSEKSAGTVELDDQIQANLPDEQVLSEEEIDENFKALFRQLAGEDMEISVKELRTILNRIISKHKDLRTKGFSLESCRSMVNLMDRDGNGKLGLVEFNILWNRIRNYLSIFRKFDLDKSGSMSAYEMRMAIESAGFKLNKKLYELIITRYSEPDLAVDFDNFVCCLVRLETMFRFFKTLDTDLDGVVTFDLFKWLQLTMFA
T2 sequence (P04632 1-268 partner): T1 sequence (P04632 1-268 partner)
Nature of the assay: Biochemical inhibition of Calpain 1, continuous fluorescence (FRET) assay. The following applies: mean; class symbols; read-out: Human Calpain 1/NS1 IC50 (nM)_MEAN. As for the experimental part:
as §1, §2, §3
Column A: Human Calpain 1/NS1 IC50 (nM)_MEAN

A further assay concerns the target T3, Human Calpain 9/NS1 (Homo sapiens, UniProt O14815).
T3 sequence (O14815 1-690): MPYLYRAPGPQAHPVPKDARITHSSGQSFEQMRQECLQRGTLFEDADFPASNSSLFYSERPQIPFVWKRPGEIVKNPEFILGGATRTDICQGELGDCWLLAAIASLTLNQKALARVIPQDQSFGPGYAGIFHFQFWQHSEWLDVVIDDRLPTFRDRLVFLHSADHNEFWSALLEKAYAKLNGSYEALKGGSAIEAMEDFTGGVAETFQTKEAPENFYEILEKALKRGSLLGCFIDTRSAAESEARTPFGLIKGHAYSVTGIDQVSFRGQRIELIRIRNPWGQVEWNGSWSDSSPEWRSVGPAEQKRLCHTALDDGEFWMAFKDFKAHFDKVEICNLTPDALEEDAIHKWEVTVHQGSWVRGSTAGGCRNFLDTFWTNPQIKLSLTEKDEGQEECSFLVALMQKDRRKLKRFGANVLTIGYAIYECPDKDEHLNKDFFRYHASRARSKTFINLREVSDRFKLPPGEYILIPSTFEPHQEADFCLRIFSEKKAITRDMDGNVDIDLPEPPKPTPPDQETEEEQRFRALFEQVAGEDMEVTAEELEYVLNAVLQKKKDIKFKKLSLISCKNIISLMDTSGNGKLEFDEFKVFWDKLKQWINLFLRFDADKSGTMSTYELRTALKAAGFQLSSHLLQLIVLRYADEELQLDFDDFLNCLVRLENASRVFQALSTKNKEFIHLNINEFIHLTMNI
T3 sequence (P04632 1-268 partner): T1 sequence (P04632 1-268 partner)
Nature of the assay: Biochemical inhibition of Calpain 9, continuous fluorescence (FRET) assay. The following applies: mean; class symbols; read-out: Human Calpain 9/NS1 IC50 (nM)_MEAN. As to the method: as §1, §2, §3
Column C: Human Calpain 9/NS1 IC50 (nM)_MEAN • A: <3 uM; • B: 3-10 uM; • C: >10 uM;

Molecules are shown by their SMILES.

As for `CC(C)[C@H](NC(=O)OCc1ccccc1)C(=O)NC1CCCNC(=O)C1=O` (stereo partly drawn) [Compound 1], the IC50 is 3000 to 10000 nM at Human Calpain 2/NS1, 3000 to 10000 nM at Human Calpain 1/NS1 and more than 10000 nM at Human Calpain 9/NS1.

On to `CC(C)C[C@H](NC(=O)[C@@H](NC(=O)OCc1ccccc1)C(C)C)C(=O)NC1CCCNC(=O)C1=O` (stereo partly drawn) [Compound 2], for which the results for the IC50 on Human Calpain 2/NS1, at Human Calpain 1/NS1 and at Human Calpain 9/NS1 were 3000 to 10000 nM, more than 10000 nM and more than 10000 nM, respectively.

On to `CC(C)[C@H](NS(=O)(=O)c1ccc(F)cc1)C(=O)NC1CCCNC(=O)C1=O` (stereo partly drawn) [Compound 3], for which the IC50 at Human Calpain 2/NS1, on Human Calpain 1/NS1 and on Human Calpain 9/NS1 was more than 10000 nM in each case.

For the compound `CC(C)[C@H](NC(=O)OCc1ccccc1)C(=O)NC1CCCCCCNC(=O)C1=O` (stereo partly drawn) [Compound 4], the IC50 on Human Calpain 2/NS1, at Human Calpain 1/NS1 and at Human Calpain 9/NS1 was less than 3000 nM each time.

On to `CC(C)[C@H](NC(=O)OCc1ccccc1)C(=O)NC1CCNC(=O)C1=O` (stereo partly drawn) [Compound 5], for which the IC50 on Human Calpain 2/NS1, at Human Calpain 1/NS1 and at Human Calpain 9/NS1 was more than 10000 nM throughout.

Take `CC(C)[C@H](NC(=O)OCc1ccccc1)C(=O)NC1CCCN(C)C(=O)C1=O` (stereo partly drawn) [Compound 6]: the IC50 on Human Calpain 2/NS1, on Human Calpain 1/NS1 and at Human Calpain 9/NS1 was more than 10000 nM each time.

Regarding `O=C1NCCCCCC[C@H](NC(=O)c2ccccc2-c2ccccc2)C1=O` [Compound 8], the figures for the IC50 at Human Calpain 2/NS1, at Human Calpain 1/NS1 and on Human Calpain 9/NS1 were less than 3000 nM, 3000 to 10000 nM and less than 3000 nM, respectively.

Regarding `CC(C)[C@H](NC(=O)OCc1ccccc1)C(=O)N[C@H]1CCCCCCCNC(=O)C1=O` [Compound 9], the IC50 at Human Calpain 2/NS1, at Human Calpain 1/NS1 and at Human Calpain 9/NS1 was less than 3000 nM each time.
